Literature values as cited in US20050208598A1 (priority 2004, published 2005).

Biological target: avidin (Gallus gallus, UniProt P02701)
Conditions: read-out: Kd of binding to avidin

avidin, sequence (P02701 25-152, species assumed): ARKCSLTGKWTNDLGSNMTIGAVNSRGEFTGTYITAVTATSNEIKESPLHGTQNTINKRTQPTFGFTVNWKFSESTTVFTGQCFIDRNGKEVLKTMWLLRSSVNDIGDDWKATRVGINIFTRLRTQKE

| Kd [µM] | Structure (SMILES) |
| --- | --- |
| ~6 | O=C(O)c1ccccc1N=Nc1ccc(O)cc1 [HABA, 2-(4-hydroxyphenylazo)benzoic acid] |
| ~0.1 | C[C@@H]1NC(=O)N[C@@H]1CCCCCC(=O)O [desthiobiotin] |
